Structures are written as SMILES.

T1 sequence (P52333 822-1111 limits assumed): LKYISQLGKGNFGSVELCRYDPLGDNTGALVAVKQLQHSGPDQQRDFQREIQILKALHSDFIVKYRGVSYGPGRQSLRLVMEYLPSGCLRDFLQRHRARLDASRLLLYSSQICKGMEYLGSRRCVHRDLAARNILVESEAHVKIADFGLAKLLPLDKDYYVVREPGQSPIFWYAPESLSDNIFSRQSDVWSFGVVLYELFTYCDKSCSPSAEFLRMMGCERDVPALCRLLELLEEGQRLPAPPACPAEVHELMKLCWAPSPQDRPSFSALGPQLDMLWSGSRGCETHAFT

This experiment concerns the target T1, JAK3: Recombinant human kinase domain (Homo sapiens, UniProt P52333).
T1 construct: JAK3: Recombinant human kinase domain from Millipore (Cat #14-629) or prepared; purchased Millipore 14-629
The experiment in a line: Determination of IC50 of Janus Kinase (JAK) inhibition, radioactive end-point 33P-ATP assay, JAK3. It counts as biochemical. The following applies: ATP 1.5 uM, peptide 50 uM, 20 minutes, read-out: JAK3-INHIB-DR/v1~NO ADDITIVE~Enzyme_Conc = 100.
As for `C[C@H](CC(=O)N1CCCC1)NC(=O)c1c[nH]c2ncc(-c3nn(C)c4cc(Cl)ccc34)nc12` [Example I-72, 2-(6-Chloro-1-methyl-1H-indazol-3-yl)-5H-pyrrolo[2,3-b]pyrazine-7-carboxylic acid ((R)-1-methyl-3-oxo-3-pyrrolidin-1-yl-propyl)-amide], the IC50 worked out at 285 nM.
In the case of `CC(NC(=O)c1c[nH]c2ncc(-c3nn(C)c4cc(F)ccc34)nc12)[C@H]1C[C@H](C#N)C1` (stereo partly drawn) [Example I-74, 2-(6-Fluoro-1-methyl-1H-indazol-3-yl)-5H-pyrrolo[2,3-b]pyrazine-7-carboxylic acid [1-(trans-3-cyano-cyclobutyl)-ethyl]-amide], the IC50 was found to be 9.35 nM.
The value for `CC(NC(=O)c1c[nH]c2ncc(-c3nn(C)c4cc(F)ccc34)nc12)[C@H]1C[C@@H](C#N)C1` (stereo partly drawn) [Example I-76, 2-(6-Fluoro-1-methyl-1H-indazol-3-yl)-5H-pyrrolo[2,3-b]pyrazine-7-carboxylic acid [1-(cis-3-cyano-cyclobutyl)-ethyl]-amide] was 12.7 nM.
The value for `C[C@@H](NC(=O)c1c[nH]c2ncc(-c3nn(C)c4cc(F)ccc34)nc12)c1cc(C(F)(F)F)ccn1` [Example I-79, 2-(6-Fluoro-1-methyl-1H-indazol-3-yl)-5H-pyrrolo[2,3-b]pyrazine-7-carboxylic acid [(R)-1-(4-trifluoromethyl-pyridin-2-yl)-ethyl]-amide] was 15.1 nM.
Regarding `Cc1ccc2c(-c3cnc4[nH]cc(C(=O)N[C@H](C)C(=O)N5CC(C#N)C5)c4n3)nn(C)c2c1` [Example I-82], the IC50 turned out to be 1.36 nM.
Consider `C[C@@H](NC(=O)c1c[nH]c2ncc(-c3nn(C)c4cc(F)cc(F)c34)nc12)C(=O)N1CC(C#N)C1` [Example I-88, 2-(4,6-Difluoro-1-methyl-1H-indazol-3-yl)-5H-pyrrolo[2,3-b]pyrazine-7-carboxylic acid [(R)-2-(3-cyano-azetidin-1-yl)-1-methyl-2-oxo-ethyl]-amide], for which the IC50 was determined as 1.57 nM.
With `Cc1ccc2c(-c3cnc4[nH]cc(C(=O)N[C@H](C)C(=O)N5CC(C#N)C5)c4n3)nn(C)c2n1` [Example I-89, 2-(1,6-Dimethyl-1H-pyrazolo[3,4-b]pyridin-3-yl)-5H-pyrrolo[2,3-b]pyrazine-7-carboxylic acid [(R)-2-(3-cyano-azetidin-1-yl)-1-methyl-2-oxo-ethyl]-amide], the IC50 came out at 1.09 nM.
`C[C@@H](NC(=O)c1c[nH]c2ncc(-c3nn(CCO)c4cc(Cl)ccc34)nc12)C(=O)N1CC(C#N)C1` [Example I-90, 2-[6-Chloro-1-(2-hydroxy-ethyl)-1H-indazol-3-yl]-5H-pyrrolo[2,3-b]pyrazine-7-carboxylic acid [(R)-2-(3-cyano-azetidin-1-yl)-1-methyl-2-oxo-ethyl]-amide]: the IC50 came out at 3.83 nM.
On to `CC(C)n1nc(-c2cnc3[nH]cc(C(=O)N[C@H](C)C(=O)N4CC(C#N)C4)c3n2)c2ccc(Cl)cc21` [Example I-91, 2-(6-Chloro-1-isopropyl-1H-indazol-3-yl)-5H-pyrrolo[2,3-b]pyrazine-7-carboxylic acid [(R)-2-(3-cyano-azetidin-1-yl)-1-methyl-2-oxo-ethyl)-amide], for which the IC50 is 3.13 nM.
As for `CCCn1nc(-c2cnc3[nH]cc(C(=O)N[C@H](C)C(=O)N4CC(C#N)C4)c3n2)c2ccc(Cl)cc21` [Example I-92, 2-(6-Chloro-1-propyl-1H-indazol-3-yl)-5H-pyrrolo[2,3-b]pyrazine-7-carboxylic acid [(R)-2-(3-cyano-azetidin-1-yl)-1-methyl-2-oxo-ethyl]-amide], the IC50 amounted to 2.08 nM.
For the compound `C[C@@H](NC(=O)c1c[nH]c2ncc(-c3nn(CC#N)c4cc(Cl)ccc34)nc12)C(=O)N1CC(C#N)C1` [Example I-93, 2-(6-Chloro-1-cyanomethyl-1H-indazol-3-yl)-5H-pyrrolo[2,3-b]pyrazine-7-carboxylic acid [(R)-2-(3-cyano-azetidin-1-yl)-1-methyl-2-oxo-ethyl]-amide], the IC50 was 0.775 nM.
The value for `C[C@@H](NC(=O)c1c[nH]c2ncc(-c3nn(CC(O)CO)c4cc(Cl)ccc34)nc12)C(=O)N1CC(C#N)C1` (stereo partly drawn) [Example I-94, 2-[6-Chloro-1-(2,3-dihydroxy-propyl)-1H-indazol-3-yl]-5H-pyrrolo[2,3-b]pyrazine-7-carboxylic acid [(R)-2-(3-cyano-azetidin-1-yl)-1-methyl-2-oxo-ethyl)-amide] was 12.6 nM.
In the case of `CC(O)Cn1nc(-c2cnc3[nH]cc(C(=O)N[C@H](C)C(=O)N4CC(C#N)C4)c3n2)c2ccc(Cl)cc21` (stereo partly drawn) [Example I-95, 2-[6-Chloro-1-(2-hydroxy-propyl)-1H-indazol-3-yl]-5H-pyrrolo[2,3-b]pyrazine-7-carboxylic acid [(R)-2-(3-cyano-azetidin-1-yl)-1-methyl-2-oxo-ethyl]-amide], the IC50 turned out to be 4.83 nM.
In the case of `C[C@@H](NC(=O)c1c[nH]c2ncc(-c3nn(CCCO)c4cc(Cl)ccc34)nc12)C(=O)N1CC(C#N)C1` [Example I-96, 2-[6-Chloro-1-(3-hydroxy-propyl)-1H-indazol-3-yl]-5H-pyrrolo[2,3-b]pyrazine-7-carboxylic acid [(R)-2-(3-cyano-azetidin-1-yl)-1-methyl-2-oxo-ethyl]-amide], the IC50 turned out to be 5.39 nM.
The value for `C[C@@H](NC(=O)c1c[nH]c2ncc(-c3nn(C)c4cc(Cl)cc(Cl)c34)nc12)C(=O)N1CC(C#N)C1` [Example I-97, 2-(4,6-Dichloro-1-methyl-1H-indazol-3-yl)-5H-pyrrolo[2,3-b]pyrazine-7-carboxylic acid [(R)-2-(3-cyano-azetidin-1-yl)-1-methyl-2-oxo-ethyl]-amide] was 57.1 nM.
As for `C[C@@H](NC(=O)c1c[nH]c2ncc(-c3nn(C)c4cccnc34)nc12)C(=O)N1CC(C#N)C1` [Example I-98, 2-(1-Methyl-1H-pyrazolo[4,3-b]pyridin-3-yl)-5H-pyrrolo[2,3-b]pyrazine-7-carboxylic acid [(R)-2-(3-cyano-azetidin-1-yl)-1-methyl-2-oxo-ethyl]-amide], the IC50 was found to be 6.78 nM.
Consider `C[C@@H](NC(=O)c1c[nH]c2ncc(-c3nn(C)c4ccsc34)nc12)C(=O)N1CC(C#N)C1` [Example I-99, 2-(1-Methyl-1H-thieno[3,2-c]pyrazol-3-yl)-5H-pyrrolo[2,3-b]pyrazine-7-carboxylic acid [(R)-2-(3-cyano-azetidin-1-yl)-1-methyl-2-oxo-ethyl]-amide], for which the IC50 is 0.85 nM.
For `C[C@@H](NC(=O)c1c[nH]c2ncc(-c3nn(C)c4cc(F)ccc34)nc12)C1(C#N)CCCC1` [Example I-100, 2-(6-Fluoro-1-methyl-1H-indazol-3-yl)-5H-pyrrolo[2,3-b]pyrazine-7-carboxylic acid [(R)-1-(1-cyano-cyclopentyl)-ethyl]-amide], the IC50 amounted to 156 nM.
As to `C[C@H](CS(C)(=O)=O)NC(=O)c1c[nH]c2ncc(-c3nn(C)c4cc(Cl)ccc34)nc12` [Example I-105, 2-(6-Chloro-1-methyl-1H-indazol-3-yl)-5H-pyrrolo[2,3-b]pyrazine-7-carboxylic acid ((R)-2-methanesulfonyl-1-methyl-ethyl)-amide], the IC50 was found to be 54.4 nM.
Take `Cn1nc(-c2cnc3[nH]cc(C(=O)NC4CCCC4)c3n2)c2ccc(Cl)cc21` [Example I-106, 2-(6-Chloro-1-methyl-1H-indazol-3-yl)-5H-pyrrolo[2,3-b]pyrazine-7-carboxylic acid cyclopentylamide]: the IC50 amounted to 5.26 nM.
Turning to `CC(C)NC(=O)c1c[nH]c2ncc(-c3nn(C)c4cc(Cl)ccc34)nc12` [Example I-108, 2-(6-Chloro-1-methyl-1H-indazol-3-yl)-5H-pyrrolo[2,3-b]pyrazine-7-carboxylic acid isopropylamide], the IC50 is 7.05 nM.
Consider `CCNC(=O)c1c[nH]c2ncc(-c3nn(C)c4cc(Cl)ccc34)nc12` [Example I-109, 2-(6-Chloro-1-methyl-1H-indazol-3-yl)-5H-pyrrolo[2,3-b]pyrazine-7-carboxylic acid ethylamide], for which the IC50 was found to be 44.3 nM.
Consider `Cn1nc(-c2cnc3[nH]cc(C(=O)NCC4CC4)c3n2)c2ccc(F)cc21` [Example I-117, 2-(6-Fluoro-1-methyl-1H-indazol-3-yl)-5H-pyrrolo[2,3-b]pyrazine-7-carboxylic acid cyclopropylmethyl-amide], for which the IC50 stood at 8.48 nM.
With `C[C@@H](NC(=O)c1c[nH]c2ncc(-c3nn(C)c4cc(Cl)ccc34)nc12)C(=O)N1CC[C@H](F)C1` [Example I-118, 2-(6-Chloro-1-methyl-1H-indazol-3-yl)-5H-pyrrolo[2,3-b]pyrazine-7-carboxylic acid [(R)-2-((S)-3-fluoro-pyrrolidin-1-yl)-1-methyl-2-oxo-ethyl]-amide], the IC50 came out at 2.01 nM.
As to `C[C@@H](NC(=O)c1c[nH]c2ncc(-c3nn(C)c4cc(Cl)ccc34)nc12)C(=O)N1CC[C@@H](F)C1` [Example I-119, 2-(6-Chloro-1-methyl-1H-indazol-3-yl)-5H-pyrrolo[2,3-b]pyrazine-7-carboxylic acid [(R)-2-((R)-3-fluoro-pyrrolidin-1-yl)-methyl-2-oxo-ethyl]-amide], the IC50 was 3.64 nM.
Regarding `C[C@@H](NC(=O)c1c[nH]c2ncc(-c3nn(C)c4cc(Cl)ccc34)nc12)C(=O)N1CC(F)C1` [Example I-120, 2-(6-Chloro-1-methyl-1H-indazol-3-yl)-5H-pyrrolo[2,3-b]pyrazine-7-carboxylic acid [(R)-2-(3-fluoro-azetidin-1-yl)-1-methyl-2-oxo-ethyl)-amide], the IC50 was 2.73 nM.
Turning to `C[C@H](CN1CC(C#N)C1)NC(=O)c1c[nH]c2ncc(-c3nn(C)c4cc(Cl)ccc34)nc12` [Example I-126, 2-(6-Chloro-1-methyl-1H-indazol-3-yl)-5H-pyrrolo[2,3-b]pyrazine-7-carboxylic acid [(R)-2-(3-cyano-azetidin-1-yl)-1-methyl-ethyl]-amide], the IC50 worked out at 18.3 nM.
`CC(C)NC(=O)c1c[nH]c2ncc(-c3nn(CCCN(C)C)c4cc(Cl)cc(F)c34)nc12` [Example I-130, 2-[6-Chloro-1-(3-dimethylamino-propyl)-4-fluoro-1H-indazol-3-yl]-5H-pyrrolo[2,3-b]pyrazine-7-carboxylic acid isopropylamide]: the IC50 was determined as 14.3 nM.

For the origin of these results see US8658646B2, “Pyrrolopyrazine kinase inhibitors” (Hoffmann-LaRoche Inc., priority 2011, dated 2014).
